The record followed here is patent publication US8637043B2, “Compositions useful as ligands for the formyl peptide receptor like 1 receptor and methods of use thereof” (Chemocentryx, Inc., priority 2001, dated 2014).

Assay [1] deals with T1, human FPRL1 (Homo sapiens, UniProt P25090).
T1 construct: Full length cDNA encoding FPRL1 was cloned, using the polymerase chain reaction (PCR), from genomic DNA isolated from undifferentiated HL-60 cells; expressed in transfected cells; linearized FPRL1/pcDNA3.1, electroporation
T1 sequence (P25090 1-351): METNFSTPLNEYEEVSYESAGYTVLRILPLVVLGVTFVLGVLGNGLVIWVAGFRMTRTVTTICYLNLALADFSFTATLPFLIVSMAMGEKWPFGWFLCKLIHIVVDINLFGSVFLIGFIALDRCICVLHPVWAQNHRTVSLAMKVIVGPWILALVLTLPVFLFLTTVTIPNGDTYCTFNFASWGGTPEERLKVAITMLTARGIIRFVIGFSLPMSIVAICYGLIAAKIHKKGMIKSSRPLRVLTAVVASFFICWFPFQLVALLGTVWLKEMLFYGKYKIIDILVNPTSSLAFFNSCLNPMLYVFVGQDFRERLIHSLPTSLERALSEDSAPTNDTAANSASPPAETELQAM
In words: Calcium flux in FPRL1-L1.2 transfectants. Format: cell-based. To be noted: for Designation and FPRL1 Activity: qualitative rating high, moderate, low, see Example 9; for Notes: activity: qualitative rating, Table 6. As for the experimental part: Ca^2+ mobilization responses were performed using the intracellular ratiometric fluorescent dye, lndo-1. Cells were loaded with Indo-1/AM (3 μM; Molecular Probes, Eugene, Oreg.) in culture medium (45 min, 20° C., 10^7 cells/ml). After dye loading, cells were washed once with 10 ml PBS) and resuspended at 10^6 cell/ml in HBSS containing 1% FBS. Cytosolic [Ca^2+] release was determined using excitation at 350 nm using a Photon Technology International fluorimeter (excitation at 350 nm, ratioed dual emission at 400 and 490 nm).
The functional activities of CKβ8-1 (25-116) were investigated in human FPRL1-L1.2 transfectants and in native L1.2 cells. Stable expression of formyl peptide-like receptor 1 (FPRL1) in L.1.2 cell was obtained as follows. Full length cDNA encoding FPRL1 was cloned, using the polymerase chain reaction (PCR), from genomic DNA isolated from undifferentiated HL-60 cells. […] Twenty micrograms of the FPRL1/pcDNA3.1 construct were linearized by digestion with Bsm1 (New England Biolabs, Beverly, Mass.) and used to transfect the murine B cell line L1.2 as follows. Twenty five million cells were washed twice and resuspended in 0.8 ml of PBS. The cells were incubated for 10 min at room temperature with the linearized FPRL/pcDNA3.1 construct DNA and transferred to a 0.4-cm cuvette, and a single electroporation pulse was applied at 250 V, 960 μF. Electroporated cells were incubated for 10 min at room temperature and transferred to culture at 37° C. in RPMI supplemented with 10% FCS. Geneticin (G418) was added to a final concentration of 800 μg/ml 48 h posttransfection and the cells plated into 96-well plates at 25,000 cells/well. After 2-3 weeks under drug selection, stable geneticin-resistant FPLR1 expressing cells were assessed for their ability to mobilize Ca^++ in response to SHAAGtide or CKbeta 8-1 at concentrations of 1 to 1000 nM.
A calcium flux test was performed on these transfectants using the method described in Example 1.
Stable expression of human FPRL1 in L1.2 cells was obtained as in Example 6. Calcium flux tests were conducted on the transfectants using the method described in Example 1. Chemokines (CKβ8(1-99), CKβ8(25-99), CKβ8-1(1-116) and CKβ8-1(25-116), were prepared as in Example 1. W peptides 1 and 2 were obtained as in Example 6. In addition, and the following SHAAGtide sequences and truncated variants (prepared as in Example 8) were tested:
All ligands were added in a dose response manner and the peak calcium flux response determined.
In general terms: A change in cytosolic calcium serves as a functional read-out for many receptors and channels.

For assay [2], the system named is OVA-specific IgG. In words: Adjuvant activity, anti-OVA antibodies in mice (Example 17). Particulars: 10 μg OVA. It is filed as in vivo, BALB/c mice. As to the method:
First, 96-well U-bottom plastic dishes were coated overnight with 1 μg ovalbumin (OVA) in 100 μl PBS per well. The next day, the dishes were rinsed with PBS, blocked with PBS containing 5% fetal bovine serum (FBS), and rinsed with PBS again. Plasma samples from experimental animals (see below) were diluted 10^2- to 10^5-fold and added to the dishes for 2 hours, after which the dishes were again rinsed with PBS. The dishes were then incubated with biotinylated goat anti-monkey IgG detection antibodies, then rinsed with PBS and incubated with streptavidin-linked horseradish peroxidase (SA-HRP). After a final rinsing with PBS, the HRP substrate 2,2′-Azinobis [3-ethylbenzothiazoline-6-sulfonic acid]-diammonium salt was added. Color development was measured with an ELISA plate reader at 405 nm, and optical density (OD) units were converted to arbitrary “antibody units,” where a unit is defined as the inverse of the plasma dilution that produces 50% of the maximum response from a standard curve obtained by serial dilution of an ascites collected from OVA-injected mice and containing OVA-specific antibodies.
The experiment described in Example 16 was repeated, except the formulations were administered to BALB/c mice with 10 μg (Table 20) or 500 μg (Table 21) of OVA with in 100 μl. IFA was not used.
BALB/c mice were given OVA with or without SHAAYtide (SEQ ID NO:6) either intraperitoneally on days 0 and 21 (Table 20), or sub-cutaneously on days 0 and 14 (Table 21). Blood samples were collected at the indicated time points. The results, reported in antibody units, are given in Tables 20 and 21, showing IgG levels.

In assay [3] the test system is dendritic cells. The assay can be described thus: Dendritic cell infiltration after intradermal injection in mice (anti-DEC-205 staining). It is filed as in vivo. Set-up: key to Dendritic cell infiltration Score / Infiltration Score: 0 = none, 1 = slight, 2 = mild, 3 = moderate, 4 = severe. To be noted: for Infiltration Score: BALB/c mice, various doses. The source says: The following chemokines were obtained from R&D Systems (Minneapolis, Minn.): vMCK-2, mC10, and GM-CSF. The following peptides were synthesized at Phoenix Pharmaceuticals (San Carlos, Calif.): SHAAYtide (SEQ ID NO:6), several […] MODIFIED peptides of SHAAGtide variant (SEQ ID NO:) (i.e. cyclized using the MPR-Cys linked cyclization), control peptide (SEQ ID NO:33, […]Gin Pro Gly lie Lys Arg Arg Trp Leu Met), randomly conjugated to OVA in either a 1:1 or 1:4 ratio (by MBS coupling method), and conjugated to OVA at the C-terminus (C-term, made by the addition of a cysteine), and SHAAGtide variant (SEQ ID NO:3). In three separate experiments, chemokines or peptides (2 μg or 20 μg in PBS) were injected intradermally into BALB/c or C57BI/6 mice (Jackson Laboratory; Bar Harbor, Me.). In each experiment, one mouse received an injection of PBS only as a negative control. At various times after injection, the mice were euthanized, and the area around the injection site was excised and subjected to immunohistology. Frozen sections were stained with anti-DEC-205 antibody (Bio-Whittaker Molecular Applications; Rockland, Me.) that recognizes a dendritic cell-specific molecule (Kraal et al., 1986). A relative staining number on a scale of […] was assigned to each section (0, none; 1, slight; 2, mild; 3, moderate; 4, severe).

The mark [4] stands for this setting: intraperitoneally on days 0 and 21, 0 day.

pIC50: −log10 of the molar value. Where “and” joins values, the source holds several entries; their conditions need not be identical. Equal values may be shown once. Ends that are not written are not given here.

Take RRKIGPQMTLSHAAG [SEQ ID NO: 2]: the pIC50 in assay [1] (peak calcium flux, dose response, read-out: Induction of Calcium Flux in FPRL1 L1.2 Cells, IC 50) was under 4.30.
Take “WRRKIG [SEQ ID NO: 10, Trp Arg Arg Lys Ile Gly]”: in assay [1], the “Designation and FPRL1 Activity” value was “Low”.
Take “20 μg SHAAYtide (SEQ ID NO: 6): 20 μg SHAAYtide without OVA (MLWRRKIGPQMTLSHAAY; SHAAGtide variant)”: the “anti-OVA IgG, individual mouse” value in assay [2] (setting [4]) was 31 antibody units and 47 antibody units and 139 antibody units and 64 antibody units; in assay [2] (intraperitoneally, 10 d) it was 0 antibody units (2×) and 40 antibody units and 592 antibody units; in assay [2] (intraperitoneally, 15 d), 0 antibody units (3×) and 168 antibody units; in assay [2] (intraperitoneally, 27 d) it was 122 antibody units and 110 antibody units and 116 antibody units and 98 antibody units; in assay [2] (intraperitoneally, 31 d), 12 antibody units and 32 antibody units and 69 antibody units and 47 antibody units; in assay [2] (intraperitoneally, 36 d), 0 antibody units. For the same substance, the “anti-OVA IgG, average” value came to 70 antibody units in assay [2] (intraperitoneally, 0 day); 158 antibody units in assay [2] (intraperitoneally, 10 d); 42 antibody units in assay [2] (intraperitoneally, 15 d); 112 antibody units in assay [2] (intraperitoneally, 27 d); 40 antibody units in assay [2] (intraperitoneally, 31 d); 0 antibody units in assay [2] (intraperitoneally, 36 d). Further, the “anti-OVA IgG, increase from day 0” value is 88 antibody units in assay [2] (intraperitoneally, 10 d); 0 antibody units in assay [2] (intraperitoneally, 15 d); 41 antibody units in assay [2] (intraperitoneally, 27 d); 0 antibody units in assay [2] (intraperitoneally, 31 d); 0 antibody units in assay [2] (intraperitoneally, 36 d).
For the substance WRRKIGPQM [SEQ ID NO: 9], in assay [1], the “Designation and FPRL1 Activity” value was “Low”.
With MLWRRKIGPQM [SEQ ID NO: 8], in assay [1], the “Designation and FPRL1 Activity” value was “moderate FPRL1 activity”; the “Notes: activity” value is “Moderate”. For the same substance, the “Designation and FPRL1 Activity” value in assay [1] (listed as CCXP8) is reported as “Moderate”.
Turning to MLWRRKIGPQMT [SEQ ID NO: 5], in assay [1], the “Designation and FPRL1 Activity” value is listed as “Moderate”; the “Notes: activity” value is reported as “Moderate”.
Regarding LWRRKIGPQMTLSH [SEQ ID NO: 11], in assay [1], the “Designation and FPRL1 Activity” value was “does not result in a complete loss in FRPL1 activity”; the “Notes: activity” value is listed as “Moderate”. Also, in assay [1] (listed as CCXP11), the “Designation and FPRL1 Activity” value was “Moderate”.
On to MLWRRKIGPQMTLSH [SEQ ID NO: 3], for which, in assay [1], the “Designation and FPRL1 Activity” value is reported as “High”; the “Notes: activity” value is “High”.
In the case of “2 μg SHAAYtide (SEQ ID NO: 6): 2 μg SHAAYtide without OVA (MLWRRKIGPQMTLSHAAY; SHAAGtide variant)”, the “anti-OVA IgG, individual mouse” value in assay [2] (setting [4]) is 7 antibody units (2×) and 14 antibody units and 24 antibody units; in assay [2] (intraperitoneally, 10 d), 0 antibody units (3×) and 273 antibody units; in assay [2] (intraperitoneally, 15 d) it was 0 antibody units; in assay [2] (intraperitoneally, 27 d) it was 47 antibody units (2×) and 58 antibody units; in assay [2] (intraperitoneally, 31 d) it was 47 antibody units and 17 antibody units and 12 antibody units and 0 antibody units; in assay [2] (intraperitoneally, 36 d), 60 antibody units (2×) and 46 antibody units and 0 antibody units. Moreover, the “anti-OVA IgG, average” value is recorded as 13 antibody units in assay [2] (intraperitoneally, 0 day); 68 antibody units in assay [2] (intraperitoneally, 10 d); 0 antibody units in assay [2] (intraperitoneally, 15 d); 51 antibody units in assay [2] (intraperitoneally, 27 d); 19 antibody units in assay [2] (intraperitoneally, 31 d); 42 antibody units in assay [2] (intraperitoneally, 36 d). The “anti-OVA IgG, increase from day 0” value in assay [2] (intraperitoneally, 10 d) was found to be 55 antibody units; in assay [2] (intraperitoneally, 15 d), 0 antibody units; in assay [2] (intraperitoneally, 27 d) it was 38 antibody units; in assay [2] (intraperitoneally, 31 d), 6 antibody units; in assay [2] (intraperitoneally, 36 d) it was 29 antibody units.
For the substance GM-CSF, the “Infiltration Score” value in assay [3] (6 hours) is 2 and 1; in assay [3] (30 hours) it was 1. In assay [3] (summary of Tables 15, 16 and 17), the “infiltration of DEC-205-labeled cells” value is listed as “excellent infiltration”.
On to WRRKIGPQMTLSHAAG [SEQ ID NO: 7], for which the “Designation and FPRL1 Activity” value in assay [1] is reported as “Low”.
For “SHAAYtide (SEQ ID NO: 6), cyclized: structurally modified peptide, cyclized using the MPR-Cys linked cyclization (MLWRRKIGPQMTLSHAAY; also: cyclized using MPR-Cys linked cyclization, MPR and Cys not in given letters)”, the “Infiltration Score” value in assay [3] (30 hours) is 1 and 2.
As for IGPQMTLSHAAG [SEQ ID NO: 4], the “Designation and FPRL1 Activity” value in assay [1] is “Low”.
